Source: PMC4744035, “In Vivo, In Vitro, and In Silico Characterization of Peptoids as Antimicrobial Agents” (PLoS ONE, 2016)
In brackets after ≈: the same amount, converted by molar mass. Square brackets hold non-standard residues; d marks the D form. Peptide text beside a SMILES is read from it. Nspe = C[C@H](NCC(=O)O)c1ccccc1; Nlys = NCCCCNCC(=O)O

Legend:
[1] = tested on: E. cloacae 218R Class C β-lactamase; experiment: microbe, parasite or virus in culture; settings: E. cloacae 218R Class C β-lactamase
How it was run: (§1)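 Growth inhibition is determined by modified microdilution in Mueller Hinton broth, with peptoids prepared in 0.01% acetic acid containing 0.2% bovine serum albumin. Final inoculum is 2–7 x 10^5 CFU/mL; endpoint is absence of growth after overnight 37°C.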

[2] = tested on: E. coli 63103 (ESBL); experiment: microbe, parasite or virus in culture; settings: E. coli 63103 (ESBL)
How it was run: as §1

[3] = tested on: E. coli 64771 (ESBL); experiment: microbe, parasite or virus in culture; settings: E. coli 64771 (ESBL)
How it was run: as §1

[4] = tested on: E. faecalis ATCC29212; experiment: microbe, parasite or virus in culture; settings: E. faecalis ATCC29212
How it was run: as §1

[5] = tested on: E. faecalis F43559 (VRE); experiment: microbe, parasite or virus in culture; settings: E. faecalis F43559 (VRE)
How it was run: as §1

[6] = tested on: E. faecalis W61950 (VRE); experiment: microbe, parasite or virus in culture; settings: E. faecalis W61950 (VRE)
How it was run: as §1

[7] = tested on: E. faecium mic80 (VRE); experiment: microbe, parasite or virus in culture; settings: E. faecium mic80 (VRE)
How it was run: as §1

[8] = tested on: K. pneumonia 61962 (ESBL); experiment: microbe, parasite or virus in culture; settings: K. pneumonia 61962 (ESBL)
How it was run: as §1

[9] = tested on: K. pneumonia 63575 (ESBL); experiment: microbe, parasite or virus in culture; settings: K. pneumonia 63575 (ESBL)
How it was run: as §1

[10] = tested on: P. aeruginosa 198 (MDR); experiment: microbe, parasite or virus in culture; settings: P. aeruginosa 198 (MDR)
How it was run: as §1

[11] = tested on: P. aeruginosa 213 (MDR); experiment: microbe, parasite or virus in culture; settings: P. aeruginosa 213 (MDR)
How it was run: as §1

[12] = tested on: P. aeruginosa 9 (MDR); experiment: microbe, parasite or virus in culture; settings: P. aeruginosa 9 (MDR)
How it was run: as §1

[13] = tested on: P. aeruginosa H1027 (MDR); experiment: microbe, parasite or virus in culture; settings: P. aeruginosa H1027 (MDR)
How it was run: as §1

[14] = tested on: P. aeruginosa H103 (wild type); experiment: microbe, parasite or virus in culture; settings: P. aeruginosa H103 (wild type)
How it was run: as §1

[15] = tested on: P. aeruginosa LES400 (MDR); experiment: microbe, parasite or virus in culture; settings: P. aeruginosa LES400 (MDR)
How it was run: as §1

[16] = tested on: S. aureus C623 (MRSA); experiment: microbe, parasite or virus in culture; settings: S. aureus C623 (MRSA)
How it was run: as §1

[17] = tested on: S. aureus (ATCC 25923); experiment: Murine model of invasive S. aureus infection; type: in vivo, CD1 mice; settings: mice, 4 mg/kg
Description: Animal experiments were performed in accordance with University of British Columbia Care Ethics Committee approval and guidelines as per animal care certificate #A04-0020. Female CD1 mice (6–8 week old) were weighed, marked, and injected with 200 μL of S. aureus (ATCC 25923) ~10^9 CFU/mouse suspended in Mueller Hinton broth containing 5% mucin and injected intraperitoneally. Four hours after infection, animals were treated with 4 mg/kg or 100μg per mouse of peptoid 1 (experimental group; n = 10) or an equivalent volume of saline (control group; n = 10). All animals were monitored two hours after each injection step, they were also evaluated at the end of the working day and the next morning a couple of hours prior to the experimental endpoint. Humane endpoints criteria; immobilization and shaking, were put down but none of the test subjects were evaluated to reach these endpoints prior to the experimental endpoint. The mice were euthanized 24 hours post-infection using CO2. The peritoneal cavity was exposed and washed with 5 mL PBS. […] Plates were incubated overnight at 37°C and colonies were counted the following day. […] The statistical differences between peptide treated and naïve mice were assessed using PRISM® (GraphPad Software Inc., San Diego, CA) using contingency tables Chi-square test, with a confidence interval of 99%. […]

[18] = Acute toxicity screen in healthy mice; type: in vivo; settings: three healthy mice, 4 mg/kg (100 μg per mouse) intraperitoneally
Description: This dosage was selected to be on the conservative end of the dosage range typically evaluated for AMPs (1 mg/kg to 24 mg/kg) in other animal studies. To screen for acute signs of toxicity, three healthy mice were injected intraperitoneally with 4 mg/kg (100 μg per mouse) of peptoid 1, and a second control group with an equivalent volume of saline.

C[C@@H](c1ccccc1)N(CC(N)=O)C(=O)CN(C(=O)CN(CCCCN)C(=O)CN(C(=O)CN(C(=O)CN(CCCCN)C(=O)CN(C(=O)CN(C(=O)CN(CCCCN)C(=O)CN(C(=O)CN(C(=O)CNCCCCN)[C@@H](C)c1ccccc1)[C@@H](C)c1ccccc1)[C@@H](C)c1ccccc1)[C@@H](C)c1ccccc1)[C@@H](C)c1ccccc1)[C@@H](C)c1ccccc1)[C@@H](C)c1ccccc1 [Peptoid 1, H-(NLys-Nspe-Nspe)4-NH2] (H-[Nlys][Nspe][Nspe][Nlys][Nspe][Nspe][Nlys][Nspe][Nspe][Nlys][Nspe][Nspe]-NH2)
MIC [1]: 2 µg/mL (≈ 1.1 µM) | MIC [2]: 2 µg/mL (≈ 1.1 µM) | MIC [3]: 2 µg/mL (≈ 1.1 µM) | MIC [4]: 2 µg/mL (≈ 1.1 µM) | MIC [5]: 4 µg/mL (≈ 2.2 µM) | MIC [6]: 8 µg/mL (≈ 4.4 µM) | MIC [7]: 2 µg/mL (≈ 1.1 µM) | MIC [8]: 4 µg/mL (≈ 2.2 µM) | MIC [9]: 4 µg/mL (≈ 2.2 µM) | MIC [10]: 4 µg/mL (≈ 2.2 µM) | MIC [11]: 4 µg/mL (≈ 2.2 µM) | MIC [12]: 16 µg/mL (≈ 8.79 µM) | MIC [13]: 2 µg/mL (≈ 1.1 µM) | MIC [14]: 2 µg/mL (≈ 1.1 µM) | MIC [15]: 2 µg/mL (≈ 1.1 µM) | MIC [16]: 2 µg/mL (≈ 1.1 µM) | toxicity [17]: no medium-term toxicity | acute signs of toxicity, 24 hours post-injection observation [18]: all mice appeared to be healthy and exhibited normal activity and no weight loss or abject morbidity
